Experimental data from patent US10023593B2, “ALK kinase inhibitor, and preparation method and uses thereof” (BEIJING PEARL BIOTECHNOLOGY LIMITED LIABILITY COMPANY, priority 2014, dated 2018).

What was measured:
[1] = target: T1, cytochrome P450 1A2 (Homo sapiens, UniProt P05177); assay: Inhibitory activity on cytochrome P450 1A2; assay type: in vitro ADME; details: no significant inhibition
T1 sequence (P05177 1-516): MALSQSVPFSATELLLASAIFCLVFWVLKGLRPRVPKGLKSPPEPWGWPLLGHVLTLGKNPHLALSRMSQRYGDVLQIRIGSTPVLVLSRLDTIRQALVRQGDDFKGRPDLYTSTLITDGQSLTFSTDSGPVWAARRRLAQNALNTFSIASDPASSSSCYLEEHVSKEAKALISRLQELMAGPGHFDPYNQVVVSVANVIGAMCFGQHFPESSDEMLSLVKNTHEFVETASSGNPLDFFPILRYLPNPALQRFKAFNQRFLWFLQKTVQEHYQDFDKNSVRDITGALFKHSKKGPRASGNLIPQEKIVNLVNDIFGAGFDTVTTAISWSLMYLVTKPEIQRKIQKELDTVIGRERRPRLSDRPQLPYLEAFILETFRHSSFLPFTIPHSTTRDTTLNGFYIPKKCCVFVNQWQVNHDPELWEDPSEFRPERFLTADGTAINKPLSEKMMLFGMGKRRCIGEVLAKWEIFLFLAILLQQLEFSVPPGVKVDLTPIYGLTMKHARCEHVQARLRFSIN

[2] = target: cytochrome P450 2C19 (Homo sapiens, UniProt P33261); assay: Inhibitory activity on cytochrome P450 2C19; assay type: in vitro ADME; details: no significant inhibition
cytochrome P450 2C19, sequence (P33261 whole entry): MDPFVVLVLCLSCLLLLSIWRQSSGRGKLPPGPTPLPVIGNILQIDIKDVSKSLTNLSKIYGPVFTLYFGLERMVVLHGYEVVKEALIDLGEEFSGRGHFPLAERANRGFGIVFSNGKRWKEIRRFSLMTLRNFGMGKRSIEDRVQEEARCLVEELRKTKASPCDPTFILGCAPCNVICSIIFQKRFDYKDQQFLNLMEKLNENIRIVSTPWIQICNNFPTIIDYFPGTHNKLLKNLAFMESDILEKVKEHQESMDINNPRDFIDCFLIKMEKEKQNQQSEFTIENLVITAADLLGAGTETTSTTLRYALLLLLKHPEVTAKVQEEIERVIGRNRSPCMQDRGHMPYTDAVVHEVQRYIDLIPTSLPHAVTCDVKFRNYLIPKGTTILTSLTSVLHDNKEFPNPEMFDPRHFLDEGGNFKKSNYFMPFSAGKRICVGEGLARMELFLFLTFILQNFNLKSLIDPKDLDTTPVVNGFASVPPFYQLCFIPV

SMILES: CC(C)S(=O)(=O)c1nn(C)cc1Nc1nc(Nc2ccc(C3CCN(C)CC3)cc2OC2CC2)ncc1Cl [Final product 40]
- IC50 [1]: > 10 µM
- IC50 [2]: > 10 µM

SMILES: CC(C)CS(=O)(=O)c1nn(C)cc1Nc1nc(Nc2ccc(C3CCN(C)CC3)cc2OC2CC2)ncc1Cl [Final product 43]
- IC50 [1]: > 10 µM
- IC50 [2]: > 10 µM

SMILES: CC(C)S(=O)(=O)c1nn(C2CC2)cc1Nc1nc(Nc2cc(F)c(C3CCN(C)CC3)cc2OC2CC2)ncc1Cl [Final product 46]
- IC50 [1]: > 10 µM
- IC50 [2]: > 10 µM

SMILES: CC(C)S(=O)(=O)c1nn(C)cc1Nc1nc(Nc2cc(Cl)c(C3CCN(C)CC3)cc2OC2CC2)ncc1Cl [Final product 47]
- IC50 [1]: > 10 µM
- IC50 [2]: > 10 µM

SMILES: Cc1cc(Nc2ncc(Cl)c(Nc3cn(C)nc3S(=O)(=O)C(C)C)n2)c(OC2CC2)cc1C1CC(C)N(C)C(C)C1 (centres unmarked) [Final product 95]
- IC50 [1]: > 10 µM
- IC50 [2]: > 10 µM

SMILES: Cc1cc(Nc2ncc(Cl)c(Nc3cn(C)nc3S(=O)(=O)C(C)C)n2)c(OC2CC2)cc1C1CCN(CCO)CC1 [Final product 133, 2-(4-(4-(5-chloro-4-(3-(isopropylsulfonyl)-1-methyl-1H-pyrazol-4-amino)pyrimidin-2-amino)-5-cyclopropoxy-2-methylphenyl)piperidin-1-yl) ethanol]
- IC50 [1]: > 10 µM
- IC50 [2]: > 10 µM

SMILES: Cc1cc(Nc2ncc(Cl)c(Nc3cn(C)nc3S(=O)(=O)C(C)C)n2)c(OC2CC2)cc1C1CCN(CCN(C)C)CC1 [Final product 146, 5-chloro-N^2-(2-cyclopropoxy-4-(1-(2-(dimethylamino)ethyl)piperidin-4-yl)-5-methylphenyl)-N^4-(3-(isopropylsulfonyl)-1-methyl-1H-pyrazol-4-yl)-pyrimidin-2,4-diamine]
- IC50 [1]: > 10 µM
- IC50 [2]: > 10 µM

SMILES: Cc1cc(Nc2ncc(Cl)c(Nc3cn(C)nc3S(=O)(=O)C(C)C)n2)c(OC2CC2)cc1C1CCN(C2COC2)CC1 [Final product 156]
- IC50 [1]: > 10 µM
- IC50 [2]: > 10 µM

SMILES: CC(=O)N1CCC(c2cc(OC3CC3)c(Nc3ncc(Cl)c(Nc4cn(C)nc4S(=O)(=O)C(C)C)n3)cc2C)CC1 [Final product 160, 1-acetyl-4-(4-(5-chloro-4-(3-(isopropylsulfonyl)-1-methyl-1H-pyrazol-4-amino)pyrimidin-2-amine)-5-cyclopropoxy-2-methylphenyl)piperidine]
- IC50 [1]: > 10 µM
- IC50 [2]: > 10 µM

SMILES: Cc1cc(Nc2ncc(Cl)c(Nc3cn(C)nc3S(=O)(=O)C(C)C)n2)c(OC2CC2)cc1C1CCN(C(=O)C(F)(F)F)CC1 [Final product 161, 1-trifluoroacetyl-4-(4-(5-chloro-4-(3-(isopropylsulfonyl)-1-methyl-1H-pyrazol-4-amino)pyrimidin-2-amine)-5-cyclopropoxy-2-methylphenyl)piperidine]
- IC50 [1]: > 10 µM
- IC50 [2]: > 10 µM

SMILES: Cc1cc(Nc2ncc(Cl)c(Nc3cn(C)nc3S(=O)(=O)C(C)C)n2)c(OC2CC2)cc1C1CCN(C(=O)CC#N)CC1 [Final product 166, 1-cyano acetyl-4-(4-(5-chloro-4-(3-(isopropylsulfonyl)-1-methyl-1H-pyrazol-4-amino)pyrimidin-2-amine)-5-cyclopropoxy-2-methylphenyl)piperidine]
- IC50 [1]: > 10 µM
- IC50 [2]: > 10 µM

SMILES: Cc1cc(Nc2ncc(Cl)c(Nc3cn(C)nc3S(=O)(=O)C(C)C)n2)c(OC2CC2)cc1C1CCN(S(C)(=O)=O)CC1 [Final product 167, 5-chloro-N^2-(2-cyclopropoxy-5-methyl-4-(1-methanesulfonyl-piperidin-4-yl)-phenyl)-N^4-(3-(isopropylsulfonyl)-1-methyl-1H-pyrazol-4-yl)pyrimidin-2,4-diamine]
- IC50 [1]: > 10 µM
- IC50 [2]: > 10 µM

SMILES: CC(=O)N1CCN([C@H]2CC[C@H](c3cc(OC4CC4)c(Nc4ncc(Cl)c(Nc5cn(C)nc5S(=O)(=O)C(C)C)n4)cc3C)CC2)CC1 [Final product 204]
- IC50 [1]: > 10 µM
- IC50 [2]: > 10 µM
